US9169254B2, “Spiroimidazolone derivative” (Chugai Seiyaku Kabushiki Kaisha, priority 2009, dated 2015)

Target: T1, human PTH1 receptor (Homo sapiens, UniProt Q03431)
T1 sequence (Q03431 27-593): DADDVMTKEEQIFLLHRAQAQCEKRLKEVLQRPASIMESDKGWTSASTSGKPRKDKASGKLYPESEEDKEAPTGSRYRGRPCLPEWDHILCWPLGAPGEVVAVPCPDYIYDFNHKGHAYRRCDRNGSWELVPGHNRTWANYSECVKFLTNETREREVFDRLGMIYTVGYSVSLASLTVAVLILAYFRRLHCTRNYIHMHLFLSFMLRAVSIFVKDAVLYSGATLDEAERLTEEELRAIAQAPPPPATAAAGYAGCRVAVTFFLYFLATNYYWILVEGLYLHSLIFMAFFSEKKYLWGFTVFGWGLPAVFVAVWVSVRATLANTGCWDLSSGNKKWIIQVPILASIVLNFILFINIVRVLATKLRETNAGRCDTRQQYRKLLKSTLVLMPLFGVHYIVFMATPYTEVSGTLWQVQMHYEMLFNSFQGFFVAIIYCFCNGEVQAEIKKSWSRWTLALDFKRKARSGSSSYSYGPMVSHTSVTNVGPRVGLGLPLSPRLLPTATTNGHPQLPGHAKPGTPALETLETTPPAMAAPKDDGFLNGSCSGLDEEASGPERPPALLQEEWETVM
Assay: In vitro cAMP signal activity in HKRK-B7 cells (LLC-PK1 cells overexpressing the human PTH1 receptor)
Format: cell-based
Details: HKRK-B7 cells; compound at 1×10^−3 M; cAMP produced as percentage of that produced by hPTH(1-34) at 100 nM

SMILES	cAMP production activity (%)
Cc1cc(C(=O)N2CCC(C)(O)CC2)cc(C)c1/C=C/S(=O)(=O)N1CCC2(CC1)N=C(c1ccc(OCCCC(F)(F)C(F)(F)F)c(C(F)(F)F)c1)NC2=O [Compound 1202, 8-{(E)-2-[4-(4-hydroxy-4-methyl-piperidine-1-carbonyl)-2,6-dimethyl-phenyl]-ethenesulfonyl}-2-[4-(4,4,5,5,5-pentafluoro-pentyloxy)-3-trifluoromethyl-phenyl]-1,3,8-triaza-spiro[4.5]dec-1-en-4-one]	91
Cc1cc(C(=O)N2CCC(C)(O)CC2)cc(C)c1/C=C/S(=O)(=O)N1CCC2(CC1)N=C(c1ccc(OCCCC(F)(F)F)c(C(F)(F)F)c1)NC2=O [Compound 1204, 8-{(E)-2-[4-(4-hydroxy-4-methyl-piperidine-1-carbonyl)-2,6-dimethyl-phenyl]-ethenesulfonyl}-2-[4-(4,4,4-trifluoro-butoxy)-3-trifluoromethyl-phenyl]-1,3,8-triaza-spiro[4.5]dec-1-en-4-one]	83
Cc1cc(C(=O)N2CCC(C)(O)CC2)cc(C)c1/C=C/S(=O)(=O)N1CCC2(CC1)N=C(c1cccc(COc3cccc(C(F)(F)F)c3)c1)NC2=O [Compound 1205, 8-{(E)-2-[4-(4-hydroxy-4-methyl-piperidine-1-carbonyl)-2,6-dimethyl-phenyl]-ethenesulfonyl}-2-[3-(3-trifluoromethyl-phenoxymethyl)-phenyl]-1,3,8-triaza-spiro[4.5]dec-1-en-4-one]	83
Cc1cc(C(=O)N2CCC(C)(O)CC2)cc(C)c1/C=C/S(=O)(=O)N1CCC2(CC1)N=C(c1ccc(OCCCC(F)(F)C(F)(F)F)c(F)c1)NC2=O [Compound 1207, 2-[3-fluoro-4-(4,4,5,5,5-pentafluoro-pentyloxy)-phenyl]-8-{(E)-2-[4-(4-hydroxy-4-methyl-piperidine-1-carbonyl)-2,6-dimethyl-phenyl]-ethenesulfonyl}-1,3,8-triaza-spiro[4.5]dec-1-en-4-one]	112
Cc1cc(C(=O)N2CCC(C)(O)CC2)cc(C)c1/C=C/S(=O)(=O)N1CCC2(CC1)N=C(c1ccc3cc[nH]c3c1)NC2=O [Compound 1208, 8-{(E)-2-[4-(4-hydroxy-4-methyl-piperidine-1-carbonyl)-2,6-dimethyl-phenyl]-ethenesulfonyl}-2-(1H-indol-6-yl)-1,3,8-triaza-spiro[4.5]dec-1-en-4-one]	65
Cc1cc(C(=O)N2CCC(C)(O)CC2)cc(C)c1/C=C/S(=O)(=O)N1CCC2(CC1)N=C(c1ccc(C(F)(F)F)c(OC(C)(C)C(F)(F)F)c1)NC2=O [Compound 1209, 8-{(E)-2-[4-(4-hydroxy-4-methyl-piperidine-1-carbonyl)-2,6-dimethyl-phenyl]-ethenesulfonyl}-2-[3-(2,2,2-trifluoro-1,1-dimethyl-ethoxy)-4-trifluoromethyl-phenyl]-1,3,8-triaza-spiro[4.5]dec-1-en-4-one]	94
[2H]C([2H])([2H])C([2H])([2H])C([2H])([2H])C([2H])([2H])Oc1cc(C2=NC3(CCN(S(=O)(=O)/C=C/c4c(C)cc(C(=O)N5CCC(C)(O)CC5)cc4C)CC3)C(=O)N2)ccc1F [Compound 1211, 2-(3-[1,1,2,2,3,3,4,4,4-^2H9]butoxy-4-fluoro-phenyl)-8-{(E)-2-[4-(4-hydroxy-4-methyl-piperidine-1-carbonyl)-2,6-dimethyl-phenyl]-ethenesulfonyl}-1,3,8-triaza-spiro[4.5]dec-1-en-4-one]	99
Cc1cc(C(=O)N2CCC(C)(O)CC2)cc(C)c1/C=C/S(=O)(=O)N1CCC2(CC1)N=C(c1ccc3c(c1)OC(F)(F)C(F)(F)O3)NC2=O [Compound 1212, 8-{(E)-2-[4-(4-hydroxy-4-methyl-piperidine-1-carbonyl)-2,6-dimethyl-phenyl]-ethenesulfonyl}-2-(2,2,3,3-tetrafluoro-2,3-dihydro-benzo[1,4]dioxin-6-yl)-1,3,8-triaza-spiro[4.5]dec-1-en-4-one]	96
Cc1cc(C(=O)N2CCC(C)(O)CC2)cc(C)c1/C=C/S(=O)(=O)N1CCC2(CC1)N=C(c1ccc(OC(F)(F)C(F)F)cc1)NC2=O [Compound 1213, 8-{(E)-2-[4-(4-hydroxy-4-methyl-piperidine-1-carbonyl)-2,6-dimethyl-phenyl]-ethenesulfonyl}-2-[4-(1,1,2,2-tetrafluoro-ethoxy)-phenyl]-1,3,8-triaza-spiro[4.5]dec-1-en-4-one]	80
Cc1cc(C(=O)N2CCC(C)(O)CC2)cc(C)c1/C=C/S(=O)(=O)N1CCC2(CC1)N=C(c1ccc(F)c(OCCCC(F)(F)F)c1)NC2=O [Compound 1218, 2-[4-fluoro-3-(4,4,4-trifluoro-butoxy)-phenyl]-8-{(E)-2-[4-(4-hydroxy-4-methyl-piperidine-1-carbonyl)-2,6-dimethyl-phenyl]-ethenesulfonyl}-1,3,8-triaza-spiro[4.5]dec-1-en-4-one]	90

Now from value to compound:

cAMP production activity (%)	SMILES
73	Cc1cc(C(=O)N2CCC(C)(O)CC2)cc(C)c1/C=C/S(=O)(=O)N1CCC2(CC1)N=C(c1ccc(OCC(F)(F)F)c(C(F)(F)F)c1)NC2=O [Compound 1200, 8-{(E)-2-[4-(4-hydroxy-4-methyl-piperidine-1-carbonyl)-2,6-dimethyl-phenyl]-ethenesulfonyl}-2-[4-(2,2,2-trifluoro-ethoxy)-3-trifluoromethyl-phenyl]-1,3,8-triaza-spiro[4.5]dec-1-en-4-one]
77	Cc1cc(C(=O)N2CCC(C)(O)CC2)cc(C)c1/C=C/S(=O)(=O)N1CCC2(CC1)N=C(c1ccc(OCC(F)(F)C(F)F)c(Cl)c1)NC2=O [Compound 1201, 2-[3-chloro-4-(2,2,3,3-tetrafluoro-propoxy)-phenyl]-8-{(E)-2-[4-(4-hydroxy-4-methyl-piperidine-1-carbonyl)-2,6-dimethyl-phenyl]-ethenesulfonyl}-1,3,8-triaza-spiro[4.5]dec-1-en-4-one]
90	Cc1cc(C(=O)N2CCC(C)(O)CC2)cc(C)c1/C=C/S(=O)(=O)N1CCC2(CC1)N=C(c1ccc(OCC(F)(F)C(F)(F)F)c(C(F)(F)F)c1)NC2=O [Compound 1203, 8-{(E)-2-[4-(4-hydroxy-4-methyl-piperidine-1-carbonyl)-2,6-dimethyl-phenyl]-ethenesulfonyl}-2-[4-(2,2,3,3,3-pentafluoro-propoxy)-3-trifluoromethyl-phenyl]-1,3,8-triaza-spiro[4.5]dec-1-en-4-one]
88	Cc1cc(C(=O)N2CCC(C)(O)CC2)cc(C)c1/C=C/S(=O)(=O)N1CCC2(CC1)N=C(c1cccc(C(C)(F)F)c1)NC2=O [Compound 1206, 2-[3-(1,1-difluoro-ethyl)-phenyl]-8-{(E)-2-[4-(4-hydroxy-4-methyl-piperidine-1-carbonyl)-2,6-dimethyl-phenyl]-ethenesulfonyl}-1,3,8-triaza-spiro[4.5]dec-1-en-4-one]
86	Cc1cc(C(=O)N2CCC(C)(O)CC2)cc(C)c1/C=C/S(=O)(=O)N1CCC2(CC1)N=C(c1ccc(Cl)c(OC(C)(C)C(F)(F)F)c1)NC2=O [Compound 1210, 2-[4-chloro-3-(2,2,2-trifluoro-1,1-dimethyl-ethoxy)-phenyl]-8-{(E)-2-[4-(4-hydroxy-4-methyl-piperidine-1-carbonyl)-2,6-dimethyl-phenyl]-ethenesulfonyl}-1,3,8-triaza-spiro[4.5]dec-1-en-4-one]
79	Cc1cc(C2=NC3(CCN(S(=O)(=O)/C=C/c4c(C)cc(C(=O)N5CCC(C)(O)CC5)cc4C)CC3)C(=O)N2)ccc1OC(F)(F)F [Compound 1214, 8-{(E)-2-[4-(4-hydroxy-4-methyl-piperidine-1-carbonyl)-2,6-dimethyl-phenyl]-ethenesulfonyl}-2-(3-methyl-4-trifluoromethoxy-phenyl)-1,3,8-triaza-spiro[4.5]dec-1-en-4-one]
74	Cc1cc(C(=O)N2CCC(C)(O)CC2)cc(C)c1/C=C/S(=O)(=O)N1CCC2(CC1)N=C(c1ccc(F)c(OCCCF)c1)NC2=O [Compound 1215, 2-[4-fluoro-3-(3-fluoro-propoxy)-phenyl]-8-{(E)-2-[4-(4-hydroxy-4-methyl-piperidine-1-carbonyl)-2,6-dimethyl-phenyl}-ethenesulfonyl]-1,3,8-triaza-spiro[4.5]dec-1-en-4-one]
61	Cc1cc(C(=O)N2CCC(C)(O)CC2)cc(C)c1/C=C/S(=O)(=O)N1CCC2(CC1)N=C(c1ccc(OCC(F)(F)F)c(Cl)c1)NC2=O [Compound 1216, 2-[3-chloro-4-(2,2,2-trifluoro-ethoxy)-phenyl]-8-{(E)-2-[4-(4-hydroxy-4-methyl-piperidine-1-carbonyl)-2,6-dimethyl-phenyl]-ethenesulfonyl}-1,3,8-triaza-spiro[4.5]dec-1-en-4-one]
68	Cc1cc(C(=O)N2CCC(C)(O)CC2)cc(C)c1/C=C/S(=O)(=O)N1CCC2(CC1)N=C(c1ccc(F)c(C(F)F)c1)NC2=O [Compound 1217, 2-(3-difluoromethyl-4-fluoro-phenyl)-8-{(E)-2-[4-(4-hydroxy-4-methyl-piperidine-1-carbonyl)-2,6-dimethyl-phenyl]-ethenesulfonyl}-1,3,8-triaza-spiro[4.5]dec-1-en-4-one]
